Measurements: patent US12723063B2, “GIPR-agonist compounds” (Eli Lilly and Company, priority 2019, dated 2026)
*1 amine or outer side, *2 acyl side, *3 side chain or, on linkers, in order; H or OH if unused. Where a SMILES comes first, the peptide text is derived from it. Side-chain parts run from the residue outwards. [ ]: non-standard residue; d: D form. The star is where a group is joined. C20 diacid = O=C(O)CCCCCCCCCCCCCCCCCCC(=O)*; αMePhe(2-F) = C[C@](N)(Cc1ccccc1F)C(=O)O; γGlu = O=C(O)[C@H](CCC(=O)[*:2])N[*:1]; 4Pal = N[C@@H](Cc1ccncc1)C(=O)O; αMeL = CC(C)C[C@](C)(N)C(=O)O; AEEA = NCCOCCOCC(=O)O; Aib = CC(C)(N)C(=O)O

How the values were obtained:
[1] = target: T1, human glucose-dependent insulinotropic peptide receptor (GIPR) (Homo sapiens, UniProt P48546); assay: cAMP functional assay (HTRF) in HEK293 cells in presence of 0.1% casein; format: cell-based; conditions: HEK293 cells expressing human GIPR, geometric mean, read-out: hGIPR cAMP Rel EC50 nM (SEM, n)
T1 construct: expressed in transfected cells; host or cells: HEK293
T1 sequence (P48546 22-466): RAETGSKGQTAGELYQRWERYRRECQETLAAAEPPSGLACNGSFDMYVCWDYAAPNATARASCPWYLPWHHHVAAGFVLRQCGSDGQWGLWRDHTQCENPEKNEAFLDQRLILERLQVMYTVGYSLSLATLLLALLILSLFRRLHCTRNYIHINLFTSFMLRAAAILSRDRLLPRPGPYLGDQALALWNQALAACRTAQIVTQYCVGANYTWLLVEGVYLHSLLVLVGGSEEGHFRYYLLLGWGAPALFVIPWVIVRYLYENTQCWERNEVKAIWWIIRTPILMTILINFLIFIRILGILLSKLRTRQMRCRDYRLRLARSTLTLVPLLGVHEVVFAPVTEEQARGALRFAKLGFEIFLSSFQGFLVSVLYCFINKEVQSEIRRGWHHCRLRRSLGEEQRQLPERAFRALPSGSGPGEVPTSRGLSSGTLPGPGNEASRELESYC

human GIPR = target: T2, human GIPR (Homo sapiens, UniProt P48546); assay: [125I]-GIP binding, SPA with WGA beads, 0.1% bacitracin; conditions: geometric mean, read-out: hGIPR Ki
T2 construct: expressed in transfected cells; crude membranes
T2 sequence (P48546 22-466): T1 sequence (P48546 22-466)
Method in brief: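 Ki values are geometric means (SEM, n independent days), derived from four-parameter nonlinear regression of IC50. Membranes came from hGIPR-expressing CHO cells.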

Compound | EC50 [1] | Ki (human GIPR)
CC[C@H](C)[C@H](NC(=O)[C@H](CO)NC(=O)[C@H](Cc1ccc(O)cc1)NC(=O)[C@H](CC(=O)O)NC(=O)[C@H](CO)NC(=O)[C@@H](NC(=O)[C@H](Cc1ccccc1)NC(=O)[C@@H](NC(=O)CNC(=O)[C@H](CCC(=O)O)NC(=O)C(C)(C)NC(=O)[C@@H](N)Cc1ccc(O)cc1)[C@@H](C)O)[C@@H](C)CC)C(=O)N[C@@H](CC(C)C)C(=O)N[C@@H](CC(C)C)C(=O)N[C@@H](CC(=O)O)C(=O)N[C@@H](CCCCN)C(=O)N[C@@H](CCCCNC(=O)COCCOCCNC(=O)COCCOCCNC(=O)CC[C@H](NC(=O)CCCCCCCCCCCCCCCCC(=O)O)C(=O)O)C(=O)N[C@@H](Cc1c[nH]cn1)C(=O)N[C@@H](CCC(N)=O)C(=O)NC(C)(C)C(=O)N[C@@H](CC(=O)O)C(=O)N[C@@H](Cc1ccccc1)C(=O)N[C@H](C(=O)N[C@@H](CCC(=O)O)C(=O)N[C@@H](Cc1ccncc1)C(=O)N[C@@H](CC(C)C)C(=O)N[C@@H](CC(C)C)C(=O)N[C@@H](C)C(=O)NCC(=O)NCC(=O)N1CCC[C@H]1C(=O)N[C@@H](CO)C(=O)N[C@@H](CO)C(=O)NCC(=O)N[C@@H](C)C(=O)N1CCC[C@H]1C(=O)N1CCC[C@H]1C(=O)N1CCC[C@H]1C(=O)N[C@@H](CO)C(N)=O)C(C)C [Example 22] | 0.0345 nM | 0.219 nM
CC[C@H](C)[C@H](NC(=O)[C@H](CO)NC(=O)[C@H](Cc1ccc(O)cc1)NC(=O)[C@H](CC(=O)O)NC(=O)[C@H](CO)NC(=O)[C@@H](NC(=O)[C@](C)(Cc1ccccc1F)NC(=O)[C@@H](NC(=O)CNC(=O)[C@H](CCC(=O)O)NC(=O)C(C)(C)NC(=O)[C@@H](N)Cc1ccc(O)cc1)[C@@H](C)O)[C@@H](C)CC)C(=O)N[C@@H](CC(C)C)C(=O)N[C@@H](CC(C)C)C(=O)N[C@@H](CC(=O)O)C(=O)N[C@@H](CCCCN)C(=O)N[C@H](C(=O)N[C@@H](Cc1c[nH]cn1)C(=O)N[C@@H](CCC(N)=O)C(=O)NC(C)(C)C(=O)N[C@@H](CC(=O)O)C(=O)N[C@@H](Cc1ccccc1)C(=O)N[C@H](C(=O)N[C@@H](CCC(=O)O)C(=O)N[C@@H](Cc1ccncc1)C(=O)N[C@@H](CCCCNC(=O)COCCOCCNC(=O)COCCOCCNC(=O)CC[C@H](NC(=O)CCCCCCCCCCCCCCCCCCC(=O)O)C(=O)O)C(=O)N[C@@H](CC(C)C)C(=O)N[C@@H](CCC(=O)O)C(=O)NCC(=O)NCC(=O)N1CCC[C@H]1C(=O)N[C@@H](CO)C(=O)N[C@@H](CO)C(=O)NCC(=O)N[C@@H](C)C(=O)N1CCC[C@H]1C(=O)N1CCC[C@H]1C(=O)N1CCC[C@H]1C(=O)N[C@@H](CO)C(N)=O)C(C)C)[C@@H](C)CC [Example 119] (H-Y[Aib]EGT[αMePhe(2-F)]ISDYSILLDKIHQ[Aib]DFVE[4Pal]K([AEEA-AEEA-γGlu-C20 diacid])LEGGPSSGAPPPS-NH2) | 0.022 nM | 0.129 nM
CC[C@H](C)[C@H](NC(=O)[C@H](CO)NC(=O)[C@H](Cc1ccc(O)cc1)NC(=O)[C@H](CC(=O)O)NC(=O)[C@H](CO)NC(=O)[C@@H](NC(=O)[C@](C)(Cc1ccccc1F)NC(=O)[C@@H](NC(=O)CNC(=O)[C@H](CCC(=O)O)NC(=O)C(C)(C)NC(=O)[C@@H](N)Cc1ccc(O)cc1)[C@@H](C)O)[C@@H](C)CC)C(=O)N[C@@H](CC(C)C)C(=O)N[C@@H](CC(C)C)C(=O)N[C@@H](CC(=O)O)C(=O)N[C@@H](CCCCN)C(=O)N[C@H](C(=O)N[C@@H](Cc1c[nH]cn1)C(=O)N[C@@H](CCC(N)=O)C(=O)NC(C)(C)C(=O)N[C@@H](CC(=O)O)C(=O)N[C@@H](Cc1ccccc1)C(=O)N[C@H](C(=O)N[C@@H](CCC(=O)O)C(=O)N[C@@H](Cc1ccncc1)C(=O)N[C@@H](CCCCNC(=O)COCCOCCNC(=O)COCCOCCNC(=O)CC[C@H](NC(=O)CCCCCCCCCCCCCCCCCCC(=O)O)C(=O)O)C(=O)N[C@@H](CC(C)C)C(=O)N[C@@H](CCC(=O)O)C(=O)N[C@@H](C)C(=O)NCC(=O)N1CCC[C@H]1C(=O)N[C@@H](CO)C(=O)N[C@@H](CO)C(=O)NCC(=O)N[C@@H](C)C(=O)N1CCC[C@H]1C(=O)N1CCC[C@H]1C(=O)N1CCC[C@H]1C(=O)N[C@@H](CO)C(N)=O)C(C)C)[C@@H](C)CC [Example 120] (H-Y[Aib]EGT[αMePhe(2-F)]ISDYSILLDKIHQ[Aib]DFVE[4Pal]K([AEEA-AEEA-γGlu-C20 diacid])LEAGPSSGAPPPS-NH2) | 0.0228 nM | 0.171 nM
CC[C@H](C)[C@H](NC(=O)[C@H](CO)NC(=O)[C@H](Cc1ccc(O)cc1)NC(=O)[C@H](CC(=O)O)NC(=O)[C@H](CO)NC(=O)[C@@H](NC(=O)[C@H](Cc1ccccc1)NC(=O)[C@@H](NC(=O)CNC(=O)[C@H](CCC(=O)O)NC(=O)[C@@H](C)NC(=O)[C@@H](N)Cc1ccc(O)cc1)[C@@H](C)O)[C@@H](C)CC)C(=O)N[C@@H](CC(C)C)C(=O)N[C@@H](CC(C)C)C(=O)N[C@@H](CC(=O)O)C(=O)N[C@@H](CCCCN)C(=O)N[C@@H](CCCCNC(=O)COCCOCCNC(=O)COCCOCCNC(=O)CC[C@H](NC(=O)CCCCCCCCCCCCCCCCCCC(=O)O)C(=O)O)C(=O)N[C@@H](Cc1c[nH]cn1)C(=O)N[C@@H](CCC(N)=O)C(=O)N[C@@H](CCC(N)=O)C(=O)N[C@@H](CC(=O)O)C(=O)N[C@@H](Cc1ccccc1)C(=O)N[C@H](C(=O)N[C@@H](CC(N)=O)C(=O)N[C@@H](Cc1c[nH]c2ccccc12)C(=O)N[C@@H](CC(C)C)C(=O)N[C@@H](CC(C)C)C(=O)N[C@@H](C)C(=O)NCC(=O)NCC(=O)N1CCC[C@H]1C(=O)N[C@@H](CO)C(=O)N[C@@H](CO)C(=O)NCC(=O)N[C@@H](C)C(=O)N1CCC[C@H]1C(=O)N1CCC[C@H]1C(=O)N1CCC[C@H]1C(=O)N[C@@H](CO)C(N)=O)C(C)C [Example 10] (H-Y[dA]EGTFISDYSILLDKK([AEEA-AEEA-γGlu-C20 diacid])HQQDFVNWLLAGGPSSGAPPPS-NH2) | 0.611 nM | 0.159 nM
CC[C@H](C)[C@H](NC(=O)[C@H](CC(C)C)NC(=O)[C@@H](NC(=O)CNC(=O)[C@H](CCC(=O)O)NC(=O)C(C)(C)NC(=O)[C@@H](N)Cc1ccc(O)cc1)[C@@H](C)O)C(=O)N[C@@H](CO)C(=O)N[C@@H](CC(=O)O)C(=O)N[C@@H](Cc1ccc(O)cc1)C(=O)N[C@@H](CO)C(=O)N[C@H](C(=O)N[C@@](C)(CC(C)C)C(=O)N[C@@H](CC(C)C)C(=O)N[C@@H](CC(=O)O)C(=O)N[C@@H](CCCCN)C(=O)N[C@@H](CCCCNC(=O)COCCOCCNC(=O)COCCOCCNC(=O)CC[C@H](NC(=O)CCCCCCCCCCCCCCCCCCC(=O)O)C(=O)O)C(=O)N[C@@H](Cc1c[nH]cn1)C(=O)N[C@@H](CCC(N)=O)C(=O)NC(C)(C)C(=O)N[C@@H](CC(=O)O)C(=O)N[C@@H](Cc1ccccc1)C(=O)N[C@H](C(=O)N[C@@H](CCC(=O)O)C(=O)N[C@@H](Cc1ccncc1)C(=O)N[C@@H](CC(C)C)C(=O)N[C@@H](CC(C)C)C(=O)N[C@@H](CCC(=O)O)C(=O)N[C@@H](C)C(=O)NCC(=O)N1CCC[C@H]1C(=O)N[C@@H](CO)C(=O)N[C@@H](CO)C(=O)NCC(=O)N[C@@H](C)C(=O)N1CCC[C@H]1C(=O)N1CCC[C@H]1C(=O)N1CCC[C@H]1C(=O)N[C@@H](CO)C(N)=O)C(C)C)[C@@H](C)CC [Example 89] (H-Y[Aib]EGTLISDYSI[αMeL]LDKK([AEEA-AEEA-γGlu-C20 diacid])HQ[Aib]DFVE[4Pal]LLEAGPSSGAPPPS-NH2) | 0.00687 nM | 0.072 nM
CC[C@H](C)[C@H](NC(=O)[C@H](CO)NC(=O)[C@H](Cc1ccc(O)cc1)NC(=O)[C@H](CC(=O)O)NC(=O)[C@H](CO)NC(=O)[C@@H](NC(=O)[C@](C)(Cc1ccccc1F)NC(=O)[C@@H](NC(=O)CNC(=O)[C@H](CCC(=O)O)NC(=O)C(C)(C)NC(=O)[C@@H](N)Cc1ccc(O)cc1)[C@@H](C)O)[C@@H](C)CC)C(=O)N[C@@H](C)C(=O)N[C@@H](CC(C)C)C(=O)N[C@@H](CC(=O)O)C(=O)N[C@@H](CCCCN)C(=O)N[C@H](C(=O)N[C@@H](Cc1c[nH]cn1)C(=O)N[C@@H](CCC(N)=O)C(=O)NC(C)(C)C(=O)N[C@@H](CC(=O)O)C(=O)N[C@@H](Cc1ccccc1)C(=O)N[C@H](C(=O)N[C@@H](CCC(=O)O)C(=O)N[C@@H](Cc1ccncc1)C(=O)N[C@@H](CCCCNC(=O)COCCOCCNC(=O)COCCOCCNC(=O)CC[C@H](NC(=O)CCCCCCCCCCCCCCCCCCC(=O)O)C(=O)O)C(=O)N[C@@H](CC(C)C)C(=O)N[C@@H](CCC(=O)O)C(=O)N[C@@H](CCC(N)=O)C(=O)NCC(=O)N1CCC[C@H]1C(=O)N[C@@H](CO)C(=O)N[C@@H](CO)C(=O)NCC(=O)N[C@@H](C)C(=O)N1CCC[C@H]1C(=O)N1CCC[C@H]1C(=O)N1CCC[C@H]1C(=O)N[C@@H](CO)C(N)=O)C(C)C)[C@@H](C)CC [Example 114] (H-Y[Aib]EGT[αMePhe(2-F)]ISDYSIALDKIHQ[Aib]DFVE[4Pal]K([AEEA-AEEA-γGlu-C20 diacid])LEQGPSSGAPPPS-NH2) | 0.0075 nM | 0.121 nM
